Data reported in patent US8592421B2, “Cyclic bioisosters of purine system derivatives and a pharmaceutical composition based thereon” (priority 2003, dated 2013).

What was measured:
[1] = system: plasma hemostasis; assay: Partial activated thromboplastin time (PATT) after intravenous administration; assay type: in vivo, rabbit; settings: for effect on the PATT: doses 15.0, 30.0, 60.0 mg/kg
Description: The static parameters of the blood and plasma coagulation (partial activated thromboplastin time, thrombin time, maximum coagulation activity (test for auto coagulation) were determined using the Behnk Electronic coagulometer (Germany). The operating principle of this instrument is based on the fact that the formed blood clot breaks the contacts of the pulse counter in the flask-pin circuit, said pin permanently oscillating in a vertical plane. The moment of formation of the clot is registered by stopping the stop watch hand.
The measurements were effected at a constant temperature of 37° C. maintained by a temperature control unit.

[2] = Morphine abstinence model: nitrites/nitrates NOX− in blood plasma, liver and brain; assay type: in vivo, rats Wistar; settings: 20.0 mg/kg intramuscularly; for Nitrites in liver: control 0.260 ± 0.023; for Nitrites in brain: Cortex of cerebrum: control 4.63 ± 0.29; for Nitrites in brain: Mesencephalon: control 5.66 ± 0.19; for Nitrites in brain: Hypothalamus: control 6.57 ± 0.50; for Nitrites in blood plasma: control 18.30 ± 2.14
Description: The experiments were carried out on rats in series of 7 animals on each compound according to the invention. Non-morphinized animal with not administered with compounds according to the invention were used as a control group. […] Then the rats were decapitated, the blood from somnolent arteries was collected in test tubes with solution EDTA as an anticoagulant, centrifuged at 1500 g for 15 minutes at 4° C.
To estimate the intensity of metabolism of nitrogen oxide in rats, quantitative determination of stable metabolites of nitrogen oxide—nitrites and nitrates NOX^− in the blood plasma, supernatanates of the liver and thymus gland, a study was conducted by a spectrometric method, and in the brain supernatanates by a […] method.
The spectrometric method is based the reaction of nitrites with the Griss reagent (a mixture of 2% solution of sulfanilamide and 0.2% N-(1-naphthyl)ethylene diamine. At the first step the nitrite reacts with sulfanilamide with formation of diazonium salt, and then with the second component to form azo dye with an adsorption maximum at 540 nm. For reduction of nitrates into nitrites, a fermentative method was used with bacterial reductase nitrate (Grisham M. B. et al., 1995). The samples of plasma and supernathant of the liver deproteinizated at 100° C. for 5 minutes incubated for 30 minutes at 37° C. in 50.0 mM of HEPES pH 7.4 in the presence of 0.2 unit/ml of Aspergillus reductase nitrate, 5.0 mkM of FAD and 0.1 mM of NAD-Ph. At the end of the reaction lactate dehydrogenase and pyruvate were added for isolation of NAD-Ph interfering with the Griss reaction. Then the Griss reagent was added and after 10-minute incubation the light absorption of the samples was measured at 540 nm. To amount of NOX^− was calculated using sodium nitrate as a standard.
The fluorometric method is based on calculation of the nitrite level by the intensity fluorescence of 2,3-diaminonaphthotriazole, a product of reaction of 2,3-diaminonaphthalene (DAN) and nitrite in an acidic medium (Misko T. R., Schilling R. J., Salvemini D. et al. “A fluorometric assay for the measurement of nitrite of biological samples”. Anal. Biochem., 1993, v. 214, p. 11-16). The brain supernatants deproteinizated at 100° C. were placed in a nitrite regenerating system containing 0.125 unit/ml of nitrate reductases, 25 mkM NADPh and 25 mkM FAD prepared in a 20-mM Tris-HCl buffer with pH 7.6 and incubated for 30 minutes at 37° C. The lactate dehydrogenase/pyruvate system was used for oxidation of the NADPh. Then 316 mkM of the DAN solution in 0.62 M of hydrochloric acids were added and the mixture was incubated for 10 minutes in darkness.
280 mM of NaOH were added for stabilization of the fluorescence of the formed 2,3-diaminonaphthotriazole. The fluorescence intensity was measured in the spectrofluorimeter Hitachi F-3000 at a wavelength of excitation of 365 nm and an emission of 405 nm. The concentration of NOX^− in the brain was calculated by means of a standard solution of sodium nitrate.

[3] = system: adenosine-sensitive receptors of erythrocytes; assay: Interaction with adenosine-sensitive receptors of erythrocytes (chemiluminescence of bound compound, adenosine competition); assay type: binding, mice of line BALB/c; settings: incubation at 37° C. vs 4° C., 10^−7 to 10^−5 M
Description: The interaction of compounds 2, 15, 21, 37 according to the invention with adenosine-sensitive receptors of erythrocytes of female mice of line BALB/c of an age of 8-12 months was investigated.
The dependence of the chemiluminescence intensity of the compounds according to the invention in an alkaline solution of 0.1N NaOH was determined in the presence of hydrogen peroxide being an initiator of chemiluminescence. The chemiluminescence was studied using the <<LKB>> chemiluminometer.
The erythrocytes of peripheral blood of the mice at first were washed three times by a normal physiological solution with centrifuging and then diluted in the Henks solution without glucose by 10 volumes of distilled water immediately used in the experiment.
At the first stage of the experiments the washed erythrocytes were incubated at a temperature of 37° C. or at 4° C. with solutions of the compounds according to the invention at a concentration of 10^−7 to 10^−5 M for 5-30 minutes, then washed by a normal physiological solution with repeated centrifuging in the cold. The obtained suspension of erythrocytes with the bound compounds according to the invention was placed in 0.1N solution of NaOH with addition of hydrogen peroxide at a final concentration of 10^−7 M. The chemiluminescence intensity was measured. A suspension of erythrocytes without compounds according to the invention was used as a control medium.
At the second stage of the experiments the washed erythrocytes were incubated at a temperature of 37° C. with solutions of the compounds according to the invention at a concentration of 10^−11 to 10^−8 M during 5-30 minutes, then washed twice with a normal physiological solution by centrifuging in the cold, the obtained suspension was mixed with an adenosine solution at a concentration of 10^−6 to 10^−4 and incubated for 15 minutes, then washed twice with a normal physiological solution with centrifuging in the cold. The obtained suspension of erythrocytes with the compounds according to the invention was placed in 0.1N solution of NaOH with addition of hydrogen peroxide in the final concentration of 10^−7 M. The chemiluminescence intensity was measured.

[4] = 15.0 mg/kg intravenously, after 15 minutes, control 37.0 ± 0.2
[5] = 15.0 mg/kg intravenously, after 30 minutes, control 37.0 ± 0.2
[6] = 15.0 mg/kg intravenously, after 60 minutes, control 37.0 ± 0.2
[7] = 15.0 mg/kg intravenously, after 120 minutes, control 37.0 ± 0.2
[8] = 30.0 mg/kg intravenously, after 15 minutes, control 33.3 ± 0.8
[9] = 30.0 mg/kg intravenously, after 30 minutes, control 33.3 ± 0.8
[10] = 30.0 mg/kg intravenously, after 60 minutes, control 33.3 ± 0.8
[11] = 30.0 mg/kg intravenously, after 120 minutes, control 33.3 ± 0.8
[12] = 60.0 mg/kg intravenously, after 15 minutes, control 32.5 ± 0.3
[13] = 60.0 mg/kg intravenously, after 30 minutes, control 32.5 ± 0.3
[14] = 60.0 mg/kg intravenously, after 60 minutes, control 32.5 ± 0.3
[15] = 60.0 mg/kg intravenously, after 120 minutes, control 32.5 ± 0.3

SMILES	PATT, T [1, 4] [s]	PATT, T [1, 5] [s]	PATT, T [1, 6] [s]	PATT, T [1, 7] [s]	PATT, T [1, 8] [s]	PATT, T [1, 9] [s]	PATT, T [1, 10] [s]	PATT, T [1, 11] [s]	PATT, T [1, 12] [s]	PATT, T [1, 13] [s]	PATT, T [1, 14] [s]	PATT, T [1, 15] [s]	effect on the PATT [1]	Nitrites in liver ([2]; Control + Compound)	Nitrites in brain: Cortex of cerebrum ([2]; Control + Compound)	Nitrites in brain: Mesencephalon ([2]; Control + Compound)	Nitrites in brain: Hypothalamus ([2]; Control + Compound)	Nitrites in blood plasma ([2]; Control + Compound) [mkmol/ml]	Nitrites in liver ([2]; Control + Morphine + compound)	Nitrites in brain: Cortex of cerebrum ([2]; Control + Morphine + compound)	other results
Nc1cccc2c(=O)[nH][nH]c(=O)c12.[Na] [Compound 15, sodium salt of 5-amino-benzo[d]-3H-pyridazine-1,4-dione]	37.0 ± 0.1	37.0 ± 0.2	36.9 ± 0.1	37.0 ± 0.3	32.9 ± 0.8	32.1 ± 0.1	32.0 ± 0.2	32.0 ± 0.1	32.2 ± 0.1	32.2 ± 0.1	32.1 ± 0.2	32.2 ± 0.1	do not affect the PATT	0.259 ± 0.019 nmol/mg of protein	4.31 ± 0.37 nmol/mg of protein	6.65 ± 0.70 nmol/mg of protein	6.77 ± 0.83 nmol/mg of protein	14.39 ± 0.84	0.285 ± 0.02 nmol/mg of protein	4.72 ± 0.37 nmol/mg of protein	Nitrites in brain: Mesencephalon ([2]; Control + Morphine + compound): 5.50 ± 0.43 nmol/mg of protein; Nitrites in brain: Hypothalamus ([2]; Control + Morphine + compound): 6.57 ± 0.88 nmol/mg of protein; Nitrites in blood plasma ([2]; Control + Morphine + compound): 13.91 ± 1.91 mkmol/ml; dependence of the bond with erythrocytes on temperature [3]: does not depend on the temperature
Nc1ccnc2c(=O)n([C@@H]3O[C@H](CO)[C@@H](O)[C@H]3O)[nH]c(=O)c12 [Compound 2, 4-amino-7-(β-D-ribofuranosile)pyrido[2,3-d]-6H-pyridazine-5,8-dione]	37.0 ± 0.1	37.0 ± 0.2	36.9 ± 0.1	37.0 ± 0.3	32.7 ± 0.5	32.0 ± 0.1	32.2 ± 0.1	32.1 ± 0.2	32.3 ± 0.2	32.4 ± 0.1	32.3 ± 0.1	32.4 ± 0.1	do not affect the PATT								dependence of the bond with erythrocytes on temperature [3]: does not depend on the temperature
Nc1cnc2c(=O)n([C@@H]3O[C@H](CO)[C@@H](O)[C@H]3O)[nH]c(=O)c2n1.[Na] [Compound 21, sodium salt of 3-amino-7-(β-D-ribofuranosile)pyrazine[2,3-d]-6H-pyridazine-5,8-dione]	37.1 ± 0.1	37.2 ± 0.1	36.9 ± 0.1	37.0 ± 0.2	32.8 ± 0.4	32.0 ± 0.1	32.2 ± 0.1	32.1 ± 0.1	32.0 ± 0.4	32.1 ± 0.2	32.0 ± 0.1	32.3 ± 0.2	do not affect the PATT								dependence of the bond with erythrocytes on temperature [3]: does not depend on the temperature
O=c1[nH][nH]c(=O)c2nccnc12.[Li] [Compound 25, lithium salt of pyrazine[2,3-d]-6H-pyridazine-5,8-dione]														0.307 ± 0.012 nmol/mg of protein	4.47 ± 0.43 nmol/mg of protein	6.98 ± 1.02 nmol/mg of protein	6.87 ± 0.80 nmol/mg of protein	17.10 ± 2.05	0.287 ± 0.01 nmol/mg of protein	4.91 ± 0.32 nmol/mg of protein	Nitrites in brain: Mesencephalon ([2]; Control + Morphine + compound): 5.91 ± 0.74 nmol/mg of protein; Nitrites in brain: Hypothalamus ([2]; Control + Morphine + compound): 6.67 ± 0.79 nmol/mg of protein; Nitrites in blood plasma ([2]; Control + Morphine + compound): 16.78 ± 2.11 mkmol/ml
O=c1[nH][nH]c(=O)c2ncccc12.[Li] [Compound 6, lithium salt of pyrido[2,3-d]-6H-pyridazine-5,8-dione]														0.245 ± 0.010 nmol/mg of protein	4.59 ± 0.44 nmol/mg of protein	7.01 ± 0.82 nmol/mg of protein	6.94 ± 0.67 nmol/mg of protein	15.83 ± 1.21	0.294 ± 0.02 nmol/mg of protein	5.12 ± 0.18 nmol/mg of protein	Nitrites in brain: Mesencephalon ([2]; Control + Morphine + compound): 5.76 ± 0.94 nmol/mg of protein; Nitrites in brain: Hypothalamus ([2]; Control + Morphine + compound): 6.72 ± 0.94 nmol/mg of protein; Nitrites in blood plasma ([2]; Control + Morphine + compound): 15.86 ± 1.20 mkmol/ml
